Laboratory results as given in ChEMBL document CHEMBL1142644, “Antineoplastic agents 440. Asymmetric synthesis and evaluation of the combretastatin A-1 SAR probes (1S,2S)- and (1R,2R)-1, 2-dihydroxy- 1-(2',3'-dihydroxy-4'-methoxyphenyl)-2-(3' ',4' ',5' '-trimethoxyphenyl)-ethane” (J Nat Prod, 2000).
≈ marks a conversion by molar mass, not a printed value. Each block holds one compound with its values, some of them ahead of it. Calls of active or inactive are those of the source. The rule behind the calls is not given here.

Tests used:
[1] = test system: P388; assay: Cytotoxicity against mouse P388 cells; type: functional; details: read-out: ED50 (the source's name)
[2] = test system: Neisseria gonorrhoeae; assay: Antibacterial activity against Neisseria gonorrhoeae by disk susceptibility test; type: functional
[3] = test system: Staphylococcus aureus; assay: Antibacterial activity against Staphylococcus aureus by disk susceptibility test; type: functional
[4] = test system: FaDu; assay: Cytotoxicity against human FaDu cells; type: functional
[5] = species on record: Bos taurus; assay: Displacement of [3H]colchicine from bovine tubulin at inhibitor to colchicine ratio of 1:1; set-up: scale not given: the % may be the effect or the level left
[6] = Inhibition of bovine tubulin polymerization; set-up: species or system Bos taurus
[7] = species on record: Bos taurus; assay: Displacement of [3H]colchicine from bovine tubulin at inhibitor to colchicine ratio of 0.2:1; set-up: scale not given: the % may be the effect or the level left
[8] = test system: Streptococcus pneumoniae; assay: Antibacterial activity against Streptococcus pneumoniae by disk susceptibility test; type: functional
[9] = test system: L1210; assay: Cytotoxicity against mouse L1210 cells; type: functional; details: read-out: ED50 (the source's name)
[10] = test system: Stenotrophomonas maltophilia; assay: Antibacterial activity against Stenotrophomonas maltophilia at 100 ug/disk by disk susceptibility test
[11] = test system: Escherichia coli; assay: Antibacterial activity against Escherichia coli at 100 ug/disk by disk susceptibility test
[12] = test system: Staphylococcus aureus; assay: Antibacterial activity against Staphylococcus aureus at 100 ug/disk by disk susceptibility test
[13] = test system: Micrococcus luteus; assay: Antibacterial activity against Micrococcus luteus at 100 ug/disk by disk susceptibility test
[14] = test system: Enterococcus faecalis; assay: Antibacterial activity against Enterococcus faecalis at 100 ug/disk by disk susceptibility test
[15] = test system: Enterobacter cloacae; assay: Antibacterial activity against Enterobacter cloacae at 100 ug/disk by disk susceptibility test
[16] = test system: Neisseria gonorrhoeae; assay: Antibacterial activity against Neisseria gonorrhoeae at 100 ug/disk by disk susceptibility test
[17] = test system: Streptococcus pneumoniae; assay: Antibacterial activity against Streptococcus pneumoniae at 100 ug/disk by disk susceptibility test
[18] = test system: Candida albicans; assay: Antifungal activity against Candida albicans at 100 ug/disk by disk susceptibility test
[19] = test system: Cryptococcus neoformans; assay: Antifungal activity against Cryptococcus neoformans at 100 ug/disk by disk susceptibility test
[20] = test system: Stenotrophomonas maltophilia; assay: Antibacterial activity against Stenotrophomonas maltophilia by disk susceptibility test; type: functional
[21] = test system: Candida albicans; assay: Antifungal activity against Candida albicans by disk susceptibility test; type: functional
[22] = test system: Cryptococcus neoformans; assay: Antifungal activity against Cryptococcus neoformans by disk susceptibility test; type: functional

Structure (SMILES): COc1cc(CCc2ccc(OC)c(OP(=O)([O-])[O-])c2OP(=O)([O-])[O-])cc(OC)c1OC.[Na+].[Na+].[Na+].[Na+]
EC50 [1]: 0.3 µg/mL

Structure (SMILES): COc1ccc(/C=C\c2cc(OC)c(OC)c(OC)c2)c(O)c1O [COMBRETASTATIN A-1]
MIC [2]: 25 µg | MIC [3]: 50 µg | GI50 [4]: 0.23 µg/mL (≈ 0.692 µM) | Activity [5]: 99.6% | IC50 [6]: 1.1 µM | Activity [7]: 89% | EC50 [1]: 0.2 µg/mL (≈ 0.602 µM)

Structure (SMILES): COc1ccc(/C=C\c2cc(OC)c(OC)c(OC)c2)cc1O [COMBRETASTATIN A4]
MIC [2]: 25 µg | EC50 [9]: 0.007 µM | GI50 [4]: 0.0007 µg/mL (≈ 0.00221 µM) | EC50 [1]: 0.0003 µg/mL (≈ 0.000948 µM)

Structure (SMILES): COc1ccc([C@@H](O)[C@H](O)c2cc(OC)c(OC)c(OC)c2)c(O)c1O
Activity [10]: inactive | Activity [11]: inactive | Activity [12]: inactive | GI50 [4]: 4.9 µg/mL (≈ 13.4 µM) | Activity [13]: inactive | Activity [14]: inactive | Activity [15]: inactive | Activity [16]: inactive | IC50 [6]: 20 µM | Activity [17]: inactive | Activity [18]: inactive | EC50 [1]: 3.9 µg/mL (≈ 10.6 µM) | Activity [19]: inactive

Structure (SMILES): COc1cc(/C=C\c2ccc(OC)c(OP(=O)([O-])[O-])c2OP(=O)([O-])[O-])cc(OC)c1OC.[Na+].[Na+].[Na+].[Na+]
EC50 [1]: < 0.01 µg/mL

Structure (SMILES): COc1ccc([C@@H](O)[C@H](O)c2cc(OC)c(OC)c(OC)c2)cc1O
MIC [8]: 50 µg | GI50 [4]: 2.1 µg/mL (≈ 5.99 µM) | IC50 [6]: > 40 µM | EC50 [1]: 19 µg/mL (≈ 54.2 µM)

Structure (SMILES): COc1ccc(/C=C\c2cc(OC)c(OC)c(OC)c2)cc1OP(=O)([O-])[O-].[Na+].[Na+] [FOSBRETABULIN DISODIUM]
MIC [2]: 50 µg | EC50 [1]: 0.0004 µg/mL

Structure (SMILES): COc1ccc(/C=C/c2cc(OC)c(OC)c(OC)c2)cc1O
Activity [10]: inactive | Activity [11]: inactive | Activity [12]: inactive | Activity [13]: inactive | Activity [14]: inactive | Activity [15]: inactive | Activity [16]: inactive | Activity [17]: inactive | Activity [18]: inactive | Activity [19]: inactive

Continued, in another order:

MIC [8]: 25 µg | IC50 [6]: 14 µM
Structure (SMILES): COc1ccc([C@H](O)[C@@H](O)c2cc(OC)c(OC)c(OC)c2)cc1O
GI50 [4]: 0.6 µg/mL (≈ 1.71 µM) | EC50 [1]: 2 µg/mL (≈ 5.71 µM)

MIC [2]: 12.5 µg
Structure (SMILES): COc1ccc(CCc2cc(OC)c(OC)c(OC)c2)c(O)c1O
EC50 [1]: 1.7 µg/mL (≈ 5.08 µM)

MIC [20]: 50 µg | MIC [2]: 6.25 µg | MIC [21]: 50 µg | MIC [3]: 50 µg | MIC [8]: 50 µg | MIC [22]: 50 µg
Structure (SMILES): COc1ccc(/C=C/c2cc(OC)c(OC)c(OC)c2)c(O)c1O

MIC [2]: 25 µg | IC50 [6]: 10 µM
Structure (SMILES): COc1ccc([C@H](O)[C@@H](O)c2cc(OC)c(OC)c(OC)c2)c(O)c1O
GI50 [4]: > 10 µg/mL | EC50 [1]: 2.9 µg/mL (≈ 7.92 µM)
